Experiments:
[1] = target: T1, MTHFD2 recombinant human enzyme (Homo sapiens, UniProt P13995); assay: MTHFD2 inhibition assay (NAD(P)H-Glo luminescence)
T1 sequence (P13995 36-350): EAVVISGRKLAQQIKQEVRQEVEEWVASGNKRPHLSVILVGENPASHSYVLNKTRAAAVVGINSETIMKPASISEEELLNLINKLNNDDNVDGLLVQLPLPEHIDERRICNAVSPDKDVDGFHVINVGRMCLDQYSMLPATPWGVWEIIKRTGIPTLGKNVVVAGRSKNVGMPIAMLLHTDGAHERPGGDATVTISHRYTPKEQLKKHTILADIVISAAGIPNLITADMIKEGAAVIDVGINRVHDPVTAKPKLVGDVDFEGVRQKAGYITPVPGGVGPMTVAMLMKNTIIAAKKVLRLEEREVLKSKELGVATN

[2] = target: T2, MTHFD1 recombinant human enzyme (Homo sapiens, UniProt P11586); assay: MTHFD1 inhibition assay (NAD(P)H-Glo luminescence); conditions: MTHFD1 IC50, recombinant human enzyme 200 nM, NADP, band
T2 sequence (P11586 2-291 limits assumed): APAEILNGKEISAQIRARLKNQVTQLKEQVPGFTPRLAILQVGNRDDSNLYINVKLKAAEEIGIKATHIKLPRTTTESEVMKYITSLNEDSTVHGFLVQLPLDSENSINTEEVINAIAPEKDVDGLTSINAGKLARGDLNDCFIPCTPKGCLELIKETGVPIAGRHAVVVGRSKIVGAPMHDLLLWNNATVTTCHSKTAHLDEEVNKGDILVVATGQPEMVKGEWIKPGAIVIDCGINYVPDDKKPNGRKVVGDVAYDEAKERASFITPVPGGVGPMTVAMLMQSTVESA

[3] = selectivity of MTHFD2 inhibition over MTHFD1, band

| SMILES | IC50 [1] | MTHFD1/MTHFD2 IC50 ratio [1, 3] | IC50 [2] | MTHFD1/MTHFD2 IC50 ratio ([1]; mean value after increased number of repeats, band) |
| --- | --- | --- | --- | --- |
| COC[C@H]1CN(c2cc(Cl)c3c4c(c(=O)oc3c2C)CN(C(=O)c2ccc(C(=O)NS(=O)(=O)N3CCC[C@@H]3COC)c(OC)c2)CC4)CCN1C [Example 288, 4-(10-chloro-8-((R)-3-(methoxymethyl)-4-methylpiperazin-1-yl)-7-methyl-5-oxo-1,3,4,5-tetrahydro-2H-chromeno[3,4-c]pyridine-3-carbonyl)-2-methoxy-N-(((R)-2-(methoxymethyl)pyrrolidin-1-yl)sulfonyl)benzamide] | 10 to 100 nM | J (>30) | 1000 to 5000 nM |  |
| COC[C@H]1CN(c2cc(Cl)c3c4c(c(=O)oc3c2C)CN(C(=O)c2cc(N(C)C)c(C(=O)NS(=O)(=O)N3CCC[C@@H]3COC)cc2F)CC4)CCN1C [Example 290, 4-(10-chloro-8-((R)-3-(methoxymethyl)-4-methylpiperazin-1-yl)-7-methyl-5-oxo-1,3,4,5-tetrahydro-2H-chromeno[3,4-c]pyridine-3-carbonyl)-2-(dimethylamino)-5-fluoro-N-(((R)-2-(methoxymethyl)pyrrolidin-1-yl)sulfonyl)benzamide] | 10 to 100 nM | J (>30) | 100 to 1000 nM |  |
| COC[C@H]1CN(c2ccc3c4c(c(=O)oc3c2C)CN(C(=O)c2ccc(C(=O)NS(=O)(=O)N(C)C(C)C)c(N3CCCC3)c2)CC4)CCN1C [Example 31, (R)-N-(N-isopropyl-N-methylsulfamoyl)-4-(8-(3-(methoxymethyl)-4-methylpiperazin-1-yl)-7-methyl-5-oxo-1,3,4,5-tetrahydro-2H-chromeno[3,4-c]pyridine-3-carbonyl)-2-(pyrrolidin-1-yl)benzamide] | 1 to 10 nM | G (^ 3 to 9.0) | 10 to 100 nM |  |
| COC[C@H]1CN(c2cc(Cl)c3c4c(c(=O)oc3c2C)CN(C(=O)c2cc(N(C)C)c(C(=O)NS(=O)(=O)N3CCC(C(F)(F)F)CC3)cc2F)CC4)CCN1C [Example 293, (R)-4-(10-chloro-8-(3-(methoxymethyl)-4-methylpiperazin-1-yl)-7-methyl-5-oxo-1,3,4,5-tetrahydro-2H-chromeno[3,4-c]pyridine-3-carbonyl)-2-(dimethylamino)-5-fluoro-N-((4-(trifluoromethyl)piperidin-1-yl)sulfonyl)benzamide] | 10 to 100 nM | J (>30) | 100 to 1000 nM |  |
| COC[C@H]1CN(c2ccc3c4c(c(=O)oc3c2Cl)CN(C(=O)c2ccc(C(=O)NS(=O)(=O)N3CCCC3)c(OC3CCCC3)c2F)CC4)CCN1C [Example 6, (R)-4-(7-chloro-8-(3-(methoxymethyl)-4-methylpiperazin-1-yl)-5-oxo-1,3,4,5-tetrahydro-2H-chromeno[3,4-c]pyridine-3-carbonyl)-2-(cyclopentyloxy)-3-fluoro-N-(pyrrolidin-1-ylsulfonyl)benzamide] | 10 to 100 nM | F (<3) | 1 to 10 nM |  |
| COC[C@H]1CN(c2ccc3c4c(c(=O)oc3c2Cl)CN(C(=O)c2ccc(C(=O)NS(=O)(=O)N(C)C)c(OC3CCCC3)c2F)CC4)CCN1C [Example 44, (R)-4-(7-chloro-8-(3-(methoxymethyl)-4-methylpiperazin-1-yl)-5-oxo-1,3,4,5-tetrahydro-2H-chromeno[3,4-c]pyridine-3-carbonyl)-2-(cyclopentyloxy)-N-(N,N-dimethylsulfamoyl)-3-fluorobenzamide] | 1 to 10 nM | F (<3) | 1 to 10 nM |  |
| COC[C@H]1CN(c2cc(C)c3c4c(c(=O)oc3c2C)CN(C(=O)c2cc(OC)c(C(=O)NS(=O)(=O)N(C)C)c(N3CCCC3)c2)CC4)CCN1C [Example 119, (R)-N-(N,N-dimethylsulfamoyl)-2-methoxy-4-(8-(3-(methoxymethyl)-4-methylpiperazin-1-yl)-7,10-dimethyl-5-oxo-1,3,4,5-tetrahydro-2H-chromeno[3,4-c]pyridine-3-carbonyl)-6-(pyrrolidin-1-yl)benzamide] | 10 to 100 nM | G (^ 3 to 9.0) | 100 to 1000 nM |  |
| COC[C@H]1CN(c2cc(C)c3c4c(c(=O)oc3c2C)CN(C(=O)c2ccc(C(=O)NS(=O)(=O)N3CCCCC3)c(OC)c2F)CC4)CCN1C [Example 239] | 10 to 100 nM | H (>9.0 to 30) | 100 to 1000 nM |  |
| COC[C@H]1CN(c2ccc3c4c(c(=O)oc3c2C)CN(C(=O)c2ccc(C(=O)NS(=O)(=O)N(C)C)c(O[C@@H]3C[C@@H]5C[C@@H]5C3)c2F)CC4)CCN1C [Example 13, 2-(((1R,3r,5S)-bicyclo[3.1.0]hexan-3-yl)oxy)-N-(N,N-dimethylsulfamoyl)-3-fluoro-4-(8-((R)-3-(methoxymethyl)-4-methylpiperazin-1-yl)-7-methyl-5-oxo-1,3,4,5-tetrahydro-2H-chromeno[3,4-c]pyridine-3-carbonyl)benzamide] | 1 to 10 nM | F (<3) | 1 to 10 nM |  |
| COC[C@H]1CN(c2cc(C)c3c4c(c(=O)oc3c2C)CN(C(=O)c2ccc(C(=O)NS(=O)(=O)N3CCCC3)c(N3CC5CC5C3)c2F)CC4)CCN1C (stereo partly drawn) [Example 95, 2-(3-azabicyclo[3.1.0]hexan-3-yl)-3-fluoro-4-(8-((R)-3-(methoxymethyl)-4-methylpiperazin-1-yl)-7,10-dimethyl-5-oxo-1,3,4,5-tetrahydro-2H-chromeno[3,4-c]pyridine-3-carbonyl)-N-(pyrrolidin-1-ylsulfonyl)benzamide] | 100 to 1000 nM | F (<3) | 100 to 1000 nM |  |
| COC[C@H]1CN(c2cc(F)c3c4c(c(=O)oc3c2C)CN(C(=O)c2cc(OC)c(C(=O)NS(=O)(=O)N3C5CCC3CC5)cc2F)CC4)CCN1C [Example 305, (R)-N-((7-azabicyclo[2.2.1]heptan-7-yl)sulfonyl)-5-fluoro-4-(10-fluoro-8-(3-(methoxymethyl)-4-methylpiperazin-1-yl)-7-methyl-5-oxo-1,3,4,5-tetrahydro-2H-chromeno[3,4-c]pyridine-3-carbonyl)-2-methoxybenzamide] | 10 to 100 nM | J (>30) | 1000 to 5000 nM |  |
| COC[C@H]1CN(c2cc(C)c3c4c(c(=O)oc3c2C)CN(C(=O)c2ccc(C(=O)NS(=O)(=O)C3(C)CC3)c(N(C)C3CC3)c2)CC4)CCN1C [Example 83, (R)-2-(cyclopropyl(methyl)amino)-4-(8-(3-(methoxymethyl)-4-methylpiperazin-1-yl)-7,10-dimethyl-5-oxo-1,3,4,5-tetrahydro-2H-chromeno[3,4-c]pyridine-3-carbonyl)-N-((1-methylcyclopropyl)sulfonyl)benzamide] | 1 to 10 nM | G (^ 3 to 9.0) | 10 to 100 nM | H* (>9.0 to 30) |
| COC[C@H]1CN(c2cc(C)c3c4c(c(=O)oc3c2C)CN(C(=O)c2ccc(C(=O)NS(=O)(=O)N(C)C)c(N3CCCC(F)(F)C3)c2F)CC4)CCN1C [Example 78, (R)-2-(3,3-difluoropiperidin-1-yl)-N-(N,N-dimethylsulfamoyl)-3-fluoro-4-(8-(3-(methoxymethyl)-4-methylpiperazin-1-yl)-7,10-dimethyl-5-oxo-1,3,4,5-tetrahydro-2H-chromeno[3,4-c]pyridine-3-carbonyl)benzamide] | 1 to 10 nM |  | 1 to 10 nM |  |
| COC[C@H]1CN(c2ccc3c4c(c(=O)oc3c2C)CN(C(=O)c2ccc(C(=O)NS(=O)(=O)N(C)C)c(OC3C[C@@H]5C[C@@H]5C3)c2)CC4)CCN1C (mixture of isomers) [Example 113, 2-(bicyclo[3.1.0]hexan-3-yloxy)-N-(N,N-dimethylsulfamoyl)-4-(8-((R)-3-(methoxymethyl)-4-methylpiperazin-1-yl)-7-methyl-5-oxo-1,3,4,5-tetrahydro-2H-chromeno[3,4-c]pyridine-3-carbonyl)benzamide] | 100 to 1000 nM | F (<3) | 10 to 100 nM |  |
| COC[C@H]1CN(c2ccc3c4c(c(=O)oc3c2Cl)CN(C(=O)c2ccc(C(=O)NS(=O)(=O)N(C)C(C)C)c(OC3CCCC3)c2F)CC4)CCN1C [Example 29, (R)-4-(7-chloro-8-(3-(methoxymethyl)-4-methylpiperazin-1-yl)-5-oxo-1,3,4,5-tetrahydro-2H-chromeno[3,4-c]pyridine-3-carbonyl)-2-(cyclopentyloxy)-3-fluoro-N-(N-isopropyl-N-methylsulfamoyl)benzamide] | 10 to 100 nM | F (<3) | 10 to 100 nM |  |
| COC[C@H]1CN(c2cc(Cl)c3c4c(c(=O)oc3c2C)CN(C(=O)c2cc(N(C)C)c(C(=O)NS(=O)(=O)N3CCC[C@H]3C(F)(F)F)cc2F)CC4)CCN1C [Example 295, 4-(10-chloro-8-((R)-3-(methoxymethyl)-4-methylpiperazin-1-yl)-7-methyl-5-oxo-1,3,4,5-tetrahydro-2H-chromeno[3,4-c]pyridine-3-carbonyl)-2-(dimethylamino)-5-fluoro-N-(((S)-2-(trifluoromethyl)pyrrolidin-1-yl)sulfonyl)benzamide] | 10 to 100 nM | J (>30) | 1000 to 5000 nM |  |
